The values that follow come from patent publication US6723708B2, “Use of lithium (Li+) for the preparation of a composition for transfection of a polynucleotide into a cell and compositions useful in gene therapy” (Transgene S.A., priority 1999, dated 2004).

In the assay the test system is tibialis anterior muscles. Description: Intramuscular transfection of plasmid pTG11033 with LiCl, luciferase activity in muscle extracts. The note with it: pTG11033 25 μg/muscle intramuscular with LiCl 0.1, 1, 10 mM; measured 7 days after injection; versus NaCl 0.9% control. The format is in vivo, C57BL/10 mice. As to the method: Plasmid DNA (pTG11033: CMV promoter, β-globin intron, luciferase cassette—WO 98/34910) was prepared according to Bischoff et al., Analytical Biochemistry 254 (1997), 69-81. Prior to intramuscular injection the tested molecules were mixed with the plasmid DNA preparation. 25 μg of plasmid DNA were injected per muscle into 5 to 10 week-old C57BL/10 mice. The 2 tibialis anterior (right and left) muscles were injected (each muscle was considered as a sample). Furthermore, for each condition, both the lowest and highest luciferase acitvity values were omitted, which means number of sample per condition=(2×number of mice per condition)−2.
One week after injection of the composition, the mice were killed and the tibialis anterior muscles were retrieved and frozen. Luciferase activity was quantified on whole muscle extracts using a conventional measurement kit (Luciferase Assay System, Promega). Briefly, muscles were ground separately and diluted in 200 μl of reporter lysis buffer (Promega). 10 μl-samples were placed in 96 well-plates and mixed with 100 μl of substrate. Luciferase activity was expressed as number of RLU emitted per minute, per mg of protein.
Protein was measured on 10 μl samples using a VCA Protein Assay kit (Pierce).
In this example, the stock solution of plasmid pTG11033 was prepared in TE buffer (Tris 10 mM—EDTA 1 mM) at a nucleic acid concentration of […]. […]

`[Cl-].[Li+]` [LiCI, lithium chloride]: the “increase of luciferase activity in the injected muscles” value is reported as “around 5 times”.
